Reference: PubChem BioAssay AID504702 (Southern Research Specialized Biocontainment Screening …, 2011)
Several values for one entry are separate records, joined by “and”; a condition that tells them apart may be missing. Equal entries are not always repeated. Activity calls are given as the source filed them. No rule for the calls is given here.

Legend:
[1] = system: M. tuberculosis H37Rv with meropenem, growth inhibition; experiment: M. tuberculosis growth inhibition with meropenem, dose response, H37Rv, set 2 (AID 504702); conditions: for IC90: measured here: IC90 growth with meropenem;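 as to all read-outs here: growth read by Alamar Blue after 7 days plus overnight incubation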
[2] = as above; conditions: M. tuberculosis H37Rv with meropenem, growth inhibition

Row | SMILES | IC50 [1] | IC90 [1] [µM] | growth inhibition ([2]; at 25 µM (top of the series)) | growth inhibition ([2]; at 18.8 µM (top of the series))
1 | c1ccc(OCc2nnc(-c3ccccc3)o2)cc1 | 15 µM and 5.67 µM | > 25 | – | –
2 | Cc1cc2ccccc2[nH]1 | – | – | 0.33% (inactive) | –
3 | O=C(COC(=O)C1=COCCO1)Nc1ccc2c(c1)OCO2 | 9.76 µM | > 25 | – | –
4 | Cc1ccccc1C(=O)Nc1nc2ccccc2[nH]1 | 8.75 µM | > 25 | – | –
5 | Cc1onc(-c2c(Cl)cccc2Cl)c1/C(N)=N/OC(=O)C1CC1 | 1.47 µM | > 25 | – | –
6 | CC(=O)Nc1ccc2nc(NC(=O)Cc3ccccc3)sc2c1 | – | – | -7.72% (inactive) | –
7 | CCOc1ccc2nc(NC(=O)C3(c4ccccc4)CCCC3)sc2c1 | 1.2 µM | 4.16 | – | –
8 | O=C(CC12CC3CC(CC(C3)C1)C2)NCc1ccc(F)cc1 | – | – | -0.41% (inactive) | -0.16% (inactive)
9 | CCOc1ccc2c(c1)c(C(C)=O)c(C)n2Cc1ccco1 | – | – | -2.87% (inactive) | –
10 | N/C(=N\c1nc2cc(Cl)ccc2o1)NC(=O)c1ccccc1 | – | – | -0.66% (inactive) | –
11 | CCOc1ccc2nc(NC(=O)COc3ccc(F)cc3)sc2c1 | – | – | -3.93% (inactive) | –
12 | N/C(=N\c1nc2ccccc2o1)NC(=O)c1ccccc1Br | 3.04 µM | > 25 | – | –
13 | CCOc1ccc2c(c1)cc(C)n2-c1ccccc1 | 11.5 µM | > 25 | – | –
14 | CCOC(=O)c1c(C)[nH]c2ccccc12 | – | – | -5.69% (inactive) | –
15 | Cc1ccc(OCC(=O)Nc2cccc3c(NC(=O)COc4ccc(C)cc4C)cccc23)c(C)c1 | – | – | -7.16% (inactive) | –
16 | CCOc1ccc2c(c1)c(C(C)=O)c(C)n2-c1cccc(Cl)c1 | 10.5 µM | > 25 | – | –
17 | CCOC(=O)c1cnc2cc(-c3ccc(C(C)(C)C)cc3)nn2c1N | – | > 25 | – | –
18 | COc1ccc2oc(C(=O)Nc3nc4ccccc4[nH]3)c(C)c2c1 | – | > 25 | – | –
19 | Cc1cc2cc(F)ccc2n1-c1ccccc1 | – | – | 5.53% (inactive) | –
20 | Cc1cc2cc(Cl)ccc2n1-c1ccccc1 | – | – | 16.5% (inactive) | –
21 | OCCCc1cn(-c2ccccc2)c2ccccc12 | 14.2 µM | > 25 | – | –
22 | Cc1ccccc1OCC(=O)Nc1ccccc1N1CCCCC1 | 6.13 µM and 8.97 µM | > 25 | – | –
23 | Cc1ccccc1OCC(=O)Nc1noc(-c2ccccc2)n1 | – | – | -4.18% (inactive) | –
24 | Cc1ccc(OCC(=O)Nc2ccc3c4c(cccc24)CC3)c(C)c1 | 0.91 µM and 6.11 µM | > 25 | – | –
25 | O=C(O)CCC(=O)Nc1nc2ccccc2s1 | – | – | -2.73% (inactive) | –

Row | SMILES | IC50 [1] | IC90 [1] [µM] | growth inhibition ([2]; at 25 µM (top of the series)) | growth inhibition ([2]; at 18.8 µM (top of the series))
26 | Cc1cccnc1NC(=S)NC(=O)c1cncc(Br)c1 | 2.71 µM | > 25 | – | –
27 | CCOc1ccc(NC(=O)COc2ccc(C)cc2C)cc1 | – | – | -3.23% (inactive) | –
28 | CCCN1CC(O)=C(c2nc3ccccc3s2)C1=N | – | – | 1.43% (inactive) | –
29 | Cc1ccccc1OCC(=O)Nc1ncccn1 | – | – | 3.04% (inactive) | –
30 | CC(=O)c1c(C)n(-c2cccc(Cl)c2)c2ccc(O)cc12 | – | – | -2.38% (inactive) | –
31 | CCc1ccc2nc(/N=C(\N)NC(=O)c3ccccc3)nc(C)c2c1 | 0.82 µM | > 25 | – | –
32 | CC(=O)c1c(C)n(-c2ccccc2)c2ccc(OC(C)C)cc12 | – | – | 8.61% (inactive) | –
33 | N/C(=N\c1nc2ccccc2o1)NC(=O)c1ccccc1 | – | – | 2.3% (inactive) | –
34 | CC(C)(C)c1ccc(OCC(=O)Nc2nc3ccccc3s2)cc1 | – | – | -9.97% (inactive) | –
35 | CCOc1ccc2nc(NC(=O)Cc3ccc(OC)cc3)sc2c1 | – | – | -9.77% (inactive) | –
36 | CC(Oc1ccccc1)C(=O)Nc1nc2ccc(S(C)(=O)=O)cc2s1 (configuration not stated) | – | – | -1.72% (inactive) | –
37 | COc1ccc2nc(NC(=O)COc3c(C)cc(C)cc3C)sc2c1 | – | – | -3.9% (inactive) | –
38 | CC(C)(Oc1ccc(Cl)cc1)C(=O)Nc1nc2ccccc2s1 | – | – | 1.22% (inactive) | –
39 | COc1ccc2nc(NC(=O)COc3ccccc3)sc2c1 | – | – | -1.31% (inactive) | –
40 | O=C(CSc1n[nH]c(=O)n1C1CC1)c1ccc2c(c1)OCCO2 | 4.57 µM | > 25 | – | –
41 | COc1ccc2c(c1)cc(C)n2-c1ccccc1 | 6.88 µM | > 25 | – | –
42 | O=C(COc1ccc2ccccc2c1)Nc1nc2ccccc2[nH]1 | 8.87 µM | > 25 | – | –
43 | CC(=O)c1c(C)n(-c2ccccc2)c2ccccc12 | 11.6 µM | > 25 | – | –
44 | CCOc1ccc2[nH]cc(C(=O)OC)c2c1 | – | > 25 | – | –
45 | CCOc1ccc2c(c1)c(C(C)=O)c(C)n2-c1ccccc1C | 3.43 µM | 12.1 | – | –
46 | COC(=O)c1c(C)n(-c2ccccc2)c2ccc(O)cc12 | 8.43 µM | > 18.8 | – | –
47 | COc1ccc(C(=O)Nc2ccc3nc(N4CCCCC4)cc(C)c3c2)c(OC)c1 | 17.6 µM | > 25 | – | –
48 | COc1ccc(Cl)cc1C(=O)Nc1nc2ccccc2[nH]1 | 16.2 µM | > 25 | – | –
49 | COc1cccc(NC(=O)C2CC2)c1 | 0.58 µM and 3.28 µM | > 25 | – | –
